Molecules are shown by their SMILES.

What all share (type): cell-based
Assay [1] concerns Human lung adenocarcinoma cell A549. The assay is described as follows: CCK-8 cell proliferation assay, A549. Particulars: A549 cells, 72 hrs with drug, CCK-8, OD 450 nm. The method, then: (§1) The effect of samples on the proliferation of human tumor cells in vitro was determined by CCK-8 cell proliferation assay.
(§2) The cells were assayed through a method including the following steps: • 1) The cells were digested, counted, and prepared into a cell suspension in a corresponding culture medium (Table 1) (5×10^4 cells/ml for CFPAC-1 and RPMI 8226, and 3.5×10^4 cells/ml for rest cells). The cell suspension was added to each well of a 96-well plate in 100 μl/well. • 2) Then the 96-well plate was incubated for 24 hrs in an incubator at 37° C. and 5% CO2. • 3) The drug was diluted with the culture medium to the required working concentration. 100 μl of the corresponding drug containing medium was added to each well.
(In general: Formazan colour is commonly taken as a measure of viable cells.)

The test system of assay [2] is Human hepatoma cell HepG2. The experiment in a line: CCK-8 cell proliferation assay, HepG2. Particulars: HepG2 cells, 72 hrs with drug, CCK-8, OD 450 nm. The procedure:
as §1, §2

In assay [3] the test system is Human esophageal cancer cell TE-1. The assay is described as follows: CCK-8 cell proliferation assay, TE-1. Particulars: TE-1 cells, 72 hrs with drug, CCK-8, OD 450 nm. The method, then:
as §1, §2

Assay [4] deals with Human gastric cancer cell MKN45. The experiment in a line: CCK-8 cell proliferation assay, MKN45. Particulars: MKN-45 cells, 72 hrs with drug, CCK-8, OD 450 nm. The procedure:
as §1, §2

Assay [5] has as its system Human colon cancer cell HCT-116. The experiment in a line: CCK-8 cell proliferation assay, HCT-116. Particulars: HCT116 cells, 72 hrs with drug, CCK-8, OD 450 nm. The method, then:
as §1, §2

Assay [6] has as its system Human multiple myeloma cell RPMI 8226. The experiment in a line: CCK-8 cell proliferation assay, RPMI 8226. Particulars: RPMI8226 cells, 72 hrs with drug, CCK-8, OD 450 nm. The procedure:
as §1, §2

Assay [7] deals with Human pancreatic cancer cell CFPAC-1. The assay is described as follows: CCK-8 cell proliferation assay, CFPAC-1. Particulars: CFPAC-1 cells, 72 hrs with drug, CCK-8, OD 450 nm. The method, then:
as §1, §2

As for `N#CN=C(NCCCCCC1CCN(C(=O)c2cc3ccccc3o2)C1)Nc1ccncc1` (stereo not shown) [BSS-PC047, 2-cyano-1-(5-(1-(2-benzofurylformyl)pyrrolidine-3-yl)pentyl)-3-(4-pyridinyl)guanidine], the IC50 in assay [1] came to 66 nM; in assay [2], 79 nM; in assay [3] it was 68 nM; in assay [4] it was 55 nM; in assay [5], 63 nM; in assay [6] it was 42 nM. In addition, the IC50 in assay [7] worked out at 50 nM.

`N#CN=C(NCCCCCCC1CCN(C(=O)c2cccs2)C1)Nc1cccnc1` (stereo not shown) [BSS-PC060, 2-cyano-1-(6-(1-(2-thienylformyl)pyrrolidine-3-yl)hexyl)-3-(3-pyridinyl)guanidine]: the IC50 stood at 31 nM in assay [1]; 101 nM in assay [2]; 85 nM in assay [3]; 78 nM in assay [4]; 97 nM in assay [5]; 38 nM in assay [6]. Further, the half-inhibitory concentration (IC50) in assay [7] was determined as 31 nM.

For `N#CN=C(NCCCCCCC1CCN(C(=O)c2cc3ccccc3o2)C1)Nc1ccncc1` (stereo not shown) [BSS-PC072, 2-cyano-1-(6-(1-(2-benzofurylformyl)pyrrolidine-3-yl)hexyl)-3-(4-pyridinyl)guanidine], the IC50 in assay [1] worked out at 64 nM; in assay [2] it was 98 nM; in assay [3], 92 nM; in assay [4], 43 nM; in assay [5], 92 nM; in assay [6] it was 41 nM. Moreover, half-maximal inhibition in assay [7] (IC50) was put at 47 nM.

In the case of `N#CN=C(NCCCCCCC1CCN(C(=O)c2ccco2)C1)Nc1cc(F)nc(F)c1` (stereo not shown) [BSS-PC076], the IC50 in assay [1] worked out at 33 nM; in assay [2], 42 nM; in assay [3], 46 nM; in assay [4], 45 nM; in assay [5] it was 53 nM; in assay [6], 26 nM. The compound also gave an IC50 in assay [7] of 29 nM.

`N#CN=C(NCCCCCN1CCN(C(=O)c2ccco2)CC1)Nc1ccncc1` [BSS-PC007, 2-cyano-1-(5-((1-furoyl)piperazine-4-yl)pentyl)-3-(4-pyridinyl)guanidine]: the IC50 stood at 36 nM in assay [1]; 91 nM in assay [2]; 96 nM in assay [3]; 72 nM in assay [4]; 55 nM in assay [5]; 29 nM in assay [6]. In assay [7], this compound returned an IC50 of 27 nM.

On to `N#CN=C(NCCCCCN1CCN(C(=O)c2ccccc2)CC1)Nc1cccnc1` [BSS-PC019, 2-cyano-1-(5-((1-benzoyl)piperazine-4-yl)pentyl)-3-(3-pyridinyl)guanidine], for which the IC50 in assay [1] came to 71 nM; in assay [2], 83 nM; in assay [3], 64 nM; in assay [4], 52 nM; in assay [5], 73 nM; in assay [6], 38 nM. The IC50 in assay [7] amounted to 46 nM.

Turning to `N#CN=C(NCCCCCN1CCN(C(=O)c2ccccc2)CC1)Nc1ccncc1` [BSS-PC003], the IC50 in assay [1] came to 29 nM; in assay [2], 49 nM; in assay [3], 46 nM; in assay [4] it was 50 nM; in assay [5], 41 nM; in assay [6], 19 nM. The same compound showed an IC50 in assay [7] of 26 nM.

`N#CN=C(NCCCCCN1CCN(C(=O)C2CCCO2)CC1)Nc1ccncc1` (stereo not shown) [BSS-PC011]: the IC50 in assay [1] came out at 40 nM; in assay [2], 52 nM; in assay [3] it was 47 nM; in assay [4], 61 nM; in assay [5], 49 nM; in assay [6], 42 nM. This compound displayed an IC50 in assay [7] of 39 nM.

As to `N#CN=C(NCCCCCN1CCN(C(=O)c2sccc2F)CC1)Nc1ccncc1` [BSS-PC025, 2-cyano-1-(5-(1-(3-fluoro-2-thienylformyl)piperazine-4-yl)pentyl)-3-(4-pyridinyl)guanidine], the IC50 in assay [1] was determined as 57 nM; in assay [2], 82 nM; in assay [3], 53 nM; in assay [4], 64 nM; in assay [5], 91 nM; in assay [6] it was 43 nM. Further, in assay [7], the IC50 came to 58 nM.

On to `N#CN=C(NCCCCCCC1CCN(C(=O)c2ccco2)C1)Nc1cccnc1` (stereo not shown) [BSS-PC062, 2-cyano-1-(6-(1-(furoyl)pyrrolidine-3-yl)hexyl)-3-(3-pyridinyl)guanidine], for which the IC50 in assay [1] worked out at 46 nM; in assay [2], 58 nM; in assay [3], 49 nM; in assay [4] it was 39 nM; in assay [5], 47 nM; in assay [6], 23 nM. Besides, the IC50 in assay [7] came out at 34 nM.

Take `N#CN=C(NCCCCCC1CCN(C(=O)c2ccccc2)C1)Nc1cccnc1` (stereo not shown) [BSS-PC044, 2-cyano-1-(5-((1-benzoyl)pyrrolidine-3-yl)pentyl)-3-(3-pyridinyl)guanidine]: the IC50 in assay [1] came out at 41 nM; in assay [2] it was 42 nM; in assay [3] it was 34 nM; in assay [4] it was 53 nM; in assay [5], 40 nM; in assay [6], 20 nM. The same compound showed an IC50 in assay [7] of 38 nM.

For `COc1cccc(OC)c1C(=O)N1CCN(CCCCCNC(=NC#N)Nc2ccncc2)CC1` [BSS-PC006, 2-cyano-1-(5-(1-(2,6-dimethoxybenzoyl)piperazine-4-yl)pentyl)-3-(4-pyridinyl)guanidine], the IC50 was found to be 73 nM in assay [1]; 92 nM in assay [2]; 125 nM in assay [3]; 89 nM in assay [4]; 76 nM in assay [5]; 34 nM in assay [6]. The same compound had an IC50 in assay [7] of 55 nM.

Take `N#CN=C(NCCCCCCC1CCN(C(=O)c2cc3ccccc3[nH]2)C1)Nc1ccncc1` (stereo not shown) [BSS-PC071, 2-cyano-1-(6-(1-(2-indolylformyl)pyrrolidine-3-yl)hexyl)-3-(4-pyridinyl)guanidine]: the IC50 was 75 nM in assay [1]; 153 nM in assay [2]; 106 nM in assay [3]; 65 nM in assay [4]; 72 nM in assay [5]; 49 nM in assay [6]. The compound further yielded an IC50 in assay [7] of 61 nM.

As to `N#CN=C(NCCCCCN1CCN(C(=O)C2CCCS2)CC1)Nc1ccncc1` (stereo not shown) [BSS-PC009, 2-cyano-1-(5-(1-(2-tetrahydrothienylformyl)piperazine-4-yl)pentyl)-3-(4-pyridinyl)guanidine], the IC50 in assay [1] was found to be 71 nM; in assay [2] it was 85 nM; in assay [3], 81 nM; in assay [4], 68 nM; in assay [5] it was 92 nM; in assay [6] it was 43 nM. In assay [7], this compound came in with an IC50 of 58 nM.

As to `N#CN=C(NCCCCCC1CCN(C(=O)C2CCCN2)C1)Nc1ccncc1` (stereo not shown) [BSS-PC035, 2-cyano-1-(5-(1-(2-pyrrolidinylformyl)pyrrolidine-3-yl)pentyl)-3-(4-pyridinyl)guanidine], the IC50 in assay [1] stood at 32 nM; in assay [2] it was 86 nM; in assay [3] it was 79 nM; in assay [4], 41 nM; in assay [5] it was 33 nM; in assay [6] it was 27 nM. The compound also showed an IC50 in assay [7] of 16 nM.

As to `N#CN=C(NCCCCCC1CCN(C(=O)c2cccs2)C1)Nc1ccncc1` (stereo not shown) [BSS-PC029, 2-cyano-1-(5-(1-(2-thienylformyl)pyrrolidine-3-yl)pentyl)-3-(4-pyridinyl)guanidine], the IC50 in assay [1] amounted to 35 nM; in assay [2] it was 64 nM; in assay [3], 66 nM; in assay [4] it was 36 nM; in assay [5] it was 52 nM; in assay [6], 19 nM. In addition, the IC50 in assay [7] worked out at 34 nM.

On to `N#CN=C(NCCCCCC1CCN(C(=O)C2CCCO2)C1)Nc1ccncc1` (stereo not shown) [BSS-PC036, 2-cyano-1-(5-(1-(2-tetrahydrofuranformyl)pyrrolidine-3-yl)pentyl)-3-(4-pyridinyl)guanidine], for which the IC50 in assay [1] amounted to 28 nM; in assay [2], 90 nM; in assay [3], 72 nM; in assay [4] it was 36 nM; in assay [5], 58 nM; in assay [6], 25 nM. This compound also registered an IC50 in assay [7] of 39 nM.

Regarding `N#CN=C(NCCCCCN1CCN(C(=O)C2CCCN2)CC1)Nc1ccncc1` (stereo not shown) [BSS-PC010, 2-cyano-1-(5-(1-(2-pyrrolidinylformyl)piperazine-4-yl)pentyl)-3-(4-pyridinyl)guanidine], the IC50 came to 67 nM in assay [1]; 61 nM in assay [2]; 86 nM in assay [3]; 53 nM in assay [4]; 69 nM in assay [5]; 39 nM in assay [6]. Moreover, the IC50 in assay [7] came out at 33 nM.

On to `N#CN=C(NCCCCCC1CCN(C(=O)c2ccccc2)C1)Nc1ccncc1` (stereo not shown) [BSS-PC028, 2-cyano-1-(5-((1-benzoyl)pyrrolidine-3-yl)pentyl)-3-(4-pyridinyl)guanidine], for which the IC50 was determined as 50 nM in assay [1]; 51 nM in assay [2]; 55 nM in assay [3]; 39 nM in assay [4]; 66 nM in assay [5]; 31 nM in assay [6]. This compound displayed an IC50 in assay [7] of 35 nM.

What is called IC50 is the concentration needed to halve the response being measured. Read a low IC50 as inhibition by little substance.

The values above are taken from patent US12091385B2, “Pyridinylcyanoguanidine derivative and use thereof” (Rushi Biotech (Hangzhou) Co., Ltd, priority 2021, dated 2024).
